Data taken from patent US10653672B2, “Myogenesis promotor, muscle atrophy inhibitor, medical composition and TAZ activator” (National University Corporation Tokyo Medical and Dental …, priority 2014, dated 2020).
Several values for one entry are separate records, joined by “and”; a condition that tells them apart may be missing. Equal values may be shown once.

Legend:
C2C12 cells [1] = assay: Anti-MHC immunostaining of differentiating C2C12 cells; assay type: cell-based, mouse
Description: (2) To a culture medium in which C2C12 cells were grown to confluence under growth condition, IBS008738 or DMSO was added. The C2C12 cells were fixed immediately after the addition of IBS008738 or DMSO, and at 24 hours, 48 hours or 72 hours after the addition of IBS008738 or DMSO under differentiation condition. The fixed C2C12 cells were immunostained with anti-MHC antibody. The cell nuclei were visualized with Hoechst 33342.
(3) C2C12 cells were grown under growth condition for 24 hours in a culture medium with IBS008738 or DMSO at a concentration of 10 μM, respectively, and switched to differentiation condition to continue the cultivation. The C2C12 cells were fixed immediately after the completion of cultivation under growth condition, and at 24 hours, 48 hours and 72 hours after the switching to differentiation condition, respectively.
C2C12 cells were passaged in a growth medium (DMEM containing 10% FBS) and differentiated in a differentiation medium (DMEM containing 2% horse serum (Invitrogen)).

TAZ [2] = assay: Quantitative real-time PCR, TAZ; assay type: cell-based, mouse; conditions: C2C12 cells, 10 μM; for Normarized mRNA abundance, TAZ: listed as IBS008738
Description: (§1) (1) Quantitative real-time PCR was performed with C2C12 cells immediately before the induction of muscle formation (0 h), and after culturing under differentiation condition in a culture medium added with IBS008738 or DMSO at a concentration of 10 μM for 24 hours (24 h) and 72 hours (72 h), respectively. […] The line and error bar indicate the average value and the standard error, **p<0.05, and ns refers to not significant.
(§2) The quantitative real-time PCR was performed with SYBER Green (Roche) and ABI7500 Realtime PCR system (Applied Biosystems).

calpain 1 = assay: Quantitative real-time PCR, calpain 1; assay type: cell-based, mouse; conditions: C2C12 cells, 10 μM; for Normarized mRNA abundance, Calpain1: listed as IBS008738
Description: as §1
(§3) Evaluation was also performed under the same condition on M-cadherin, calpain 1 and caveolin 3, which are myofusion markers. As a result, there was no increase in the degree of gene transcription in the case with IBS008738.
as §2

caveolin 3 = assay: Quantitative real-time PCR, caveolin 3; assay type: cell-based, mouse; conditions: C2C12 cells, 10 μM; for Normarized mRNA abundance, Caveolin3: listed as IBS008738
Description: as §1, §3, §2

C2C12 cells [3] = assay: Antagonistic action on myostatin in C2C12 cells; assay type: cell-based, mouse; conditions: TAZ knocked down (si TAZ); with myostatin; differentiation condition 72 hours
Text: Myostatin is a protein and a member of a transforming growth factor […] superfamily, and inhibits muscle growth and differentiation. Myostatin binds activin type IIB receptor and triggers SMAD2/3-dependent signaling. Since TAZ interacts with SMAD2/3, effects of IBS008738 on the signaling of myostatin was examined (FIGS. 8A to 8C). The line in the figures is 100 μm. The line and the error bar indicate the average value and the standard error, *p<0.05, […], ***p<0.001, ns refers to not significant.
(1) C2C12 cells in which TAZ was knocked down (si TAZ) and C2C12 cells in which TAZ was not knocked down (si Cont) were grown to confluence, respectively, A stock solution of 100 μg/mL myostatin in 4 mM […] with 0.1% (w/v) BSA and a stock solution of 10 mM IBS008738 in DMSO were prepared. The cells were cultured at differentiation condition for 72 hours in a 1 mL medium with 1 μL DMSO, a 1 mL medium with 1 μL myostatin stock solution, and a 1 mL medium with 1 μL IBS008738 stock solution. As a result, muscle formation of the C2C12 cells was inhibited in the case with only myostatin, but muscle formation of the C2C12 cells was recovered in the case with myostatin and IBS008738.
(2) The fusion index of C2C12 cells in which TAZ was knocked down (si TAZ) and C2C12 cells in which TAZ was not knocked down (si Cont), after being cultured under differentiation condition for 72 hours, was analyzed.
Expression of MHC of C2C12 cells in which TAZ was knocked down (si TAZ) and C2C12 cells in which TAZ was not knocked down (si Cont), after being cultured under differentiation condition for 72 hours, was analyzed by immunoblotting. As a result, expression of MHC decreased in the case with only myostatin, whereas it recovered in the case with myostatin and IBS008738 (see FIG. 8C).

TAZ [4] = assay: Localization of TAZ in the cell by cell fraction; assay type: cell-based, mouse; conditions: C2C12 cells, 24 hours under differentiation condition
Description: Phosphorylation of TAZ and its localization in the cell are important factors in controlling the activity of TAZ. The localization of TAZ in the cell was examined by performing cell fraction of C2C12 cells after being cultured for 24 hours under differentiation condition in a medium added with IBS008738 or DMSO.

A549 cells = assay: Immunoblotting of EMT markers in A549 cells; assay type: cell-based, human
Description: (1) A431 cells, (epidermoid carcinoma), A549 cells (adenocarcinomic human alveolar basal epithelial cell) and HCT116 cells (human colon cancer) were treated with IBS008738 or DMSO, respectively, and evaluated by immunoblotting.
HEK293, A431, A549, HCT116, MCF7 and SW480 cells were cultured in Dulbecco's Modified Eagle Medium (DMEM) containing 10% fetal bovine serum (FBS), 10 mM HEPES-NaOH at pH 7.4, 100 U/ml penicillin and 100 mg/I streptomycin under 5% CO2 at 37° C.

SMILES: Cc1ccc(-n2cnc(/N=C/N3CCOCC3)c2C(=O)c2ccccc2)cc1 [exemplary compound 1]
- cell differentiation compared with DMSO (C2C12 cells [1]; 10 μM, 24 hours under growth condition, then differentiation condition up to 72 hours): more developed
- cell differentiation and MHC expression compared with DMSO (C2C12 cells [1]; added at confluence, fixed at 0, 24, 48 or 72 hours under differentiation condition, anti-MHC antibody): more significant
- expression of TAZ (gene transcription) compared with DMSO (TAZ [2]; 24 h and 72 h): did not change
- Normarized mRNA abundance, TAZ (TAZ [2]; differentiation condition 24 h): 0.88 and 0.94
- Normarized mRNA abundance, TAZ (TAZ [2]; differentiation condition 72 h): 1.44 and 1.36 and 1.41
- degree of gene transcription of calpain 1 (calpain 1; 24 h and 72 h): no increase
- Normarized mRNA abundance, Calpain1 (calpain 1; differentiation condition 24 h): 0.84 and 0.81 and 0.98
- Normarized mRNA abundance, Calpain1 (calpain 1; differentiation condition 72 h): 1.15 and 1.18 and 1.22
- degree of gene transcription of caveolin 3 (caveolin 3; 24 h and 72 h): no increase
- Normarized mRNA abundance, Caveolin3 (caveolin 3; differentiation condition 24 h): 0.14 and 0.13
- Normarized mRNA abundance, Caveolin3 (caveolin 3; differentiation condition 72 h): 2.08 and 2.47 and 2.09
- muscle formation of the C2C12 cells (C2C12 cells [3]): did not recover
- effect on the localization of TAZ in the cell (TAZ [4]): no effect
- EMT markers (fibronectin, E-cadherin, N-cadherin and vimentin) compared with DMSO (A549 cells): no significant difference
